Experimental data taken from patent US20210315991A1, “COMBINATION INCLUDING A CPG-C TYPE OLIGONUCLEOTIDE AND A PD-1 ANTAGONIST FOR TREATING BREAST CANCER” (Surefire Medical, Inc. d/b/a TriSalus Life Sciences, priority 2018, published 2021).

Tested on: human peripheral blood mononuclear cells (PBMCs)
Experiment: IFN-α secretion by human PBMC (ELISA)
Assay type: cell-based
Settings: for EC50: human PBMCs from healthy donors, IFN-α in supernatant by ELISA; for EC50 / IFN-α Max: 24 hours incubation; for IFN-α Max / maximum IFN-α levels induced, as compared to C69-10 and C69-11: human PBMCs; for IFN-α Max: ELISA, limit of maximal/minimal detection 13160/102 pg/ml; for maximum IFN-α levels induced, as compared to C69-10 and C69-11: 24 hours, result in words
Procedure: The activity of a candidate TLR9 agonist may be assessed in vitro by measuring interferon-alpha secretion by human peripheral blood mononuclear cells (PBMC) with an enzyme linked immunosorbent assay (ELISA). In particular, human PBMC are contacted with a series of graded doses of the candidate TLR9 agonist (and controls) for a period of about 24 hours. The EC50 value (in nM) and a max production level (in pg/mL) are then determined from a dose-response curve.
Activity of oligonucleotides (PN) was assessed in vitro by measurement of cytokine secretion by human peripheral blood mononuclear cells (PBMCs).
PBMCs were isolated from blood of healthy human donors using Ficoll-Paque. For IFN-α induction, duplicate cultures of PBMCs were incubated for 24 hours with increasing concentrations of oligonucleotides. IFN-α levels in cell culture supernatants were measured by ELISA (PBL Biomedical Laboratories, Piscataway, N.J.). The limit of maximal/minimal detection was 13160/102 pg/ml.

Row | Substance | EC50 | IFN-α Max | maximum IFN-α levels induced, as compared to C69-10 and C69-11
1 | C69-10: 5′-TTCG AACGTTCGAACGTTCGAAT-3′ (SEQ ID NO: 23), phosphorothioate backbone (DNA TTCGAACGTTCGAACGTTCGAAT; DNA, all phosphorothioate, methylation of C not given here) | 58 nM | 3820 pg/mL | 
2 | C69-01: 5′-TCG AACGTTCGAACGTTCGAA CGTTCGAAT-3′ (SEQ ID NO: 4), CpG-C 2′-deoxyribopolynucleotide, phosphorothioate backbone (DNA TCGAACGTTCGAACGTTCGAACGTTCGAAT; DNA, all phosphorothioate, methylation of C not given here) | 61 nM | 6030 pg/mL | Higher maximum IFN-α levels
3 | C69-11: 5′-TTTTCG AACGTTCGAACGTTCGAAATT-3′ (SEQ ID NO: 24), phosphorothioate backbone (DNA TTTTCGAACGTTCGAACGTTCGAAATT; DNA, all phosphorothioate, methylation of C not given here) | 65 nM | 1239 pg/mL | 
4 | C69-02: 5′-TCG AACGTTCGAACGTTCGAA CGTT-3′ (SEQ ID NO: 5), phosphorothioate backbone (DNA TCGAACGTTCGAACGTTCGAACGTT; DNA, all phosphorothioate, methylation of C not given here) | 49 nM | 6008 pg/mL | Higher maximum IFN-α levels
